Reference: patent US9708308B2, “Factor IXa inhibitors” (Merck Sharp & Dohme Corp., priority 2012, dated 2017)

target: Factor IXa (Homo sapiens, UniProt P00740); assay: Determination of inhibitory activity against Factor IXa (cleavage of fluorescent peptide substrate); type: biochemical; conditions: cleavage of fluorescent peptide CH3SO2-D-CHG-Gly-Arg-AFC, release of AFC; read-out: FIXa IC50
Text: • (R)—N-(3-aminobenzo[d]isoxazol-6-yl)-2-hydroxy-2-((R)-4-(1-(6-methoxypyridazin-4-yl)-1H-pyrazol-3-yl)-6,6-dimethyl-3-oxomorpholin-2-yl)acetamide. Determination of Inhibitory Activity Against Factor IXa
Formation of a clot to stem bleeding at a site of blood vessel injury involves the coordinated activity of a group of plasma proteins that initiate and propagate fibrin formation and subsequently protect fibrin from premature degradation. Factor IX is a key component of the plasma system that forms a fibrin clot at a site of vascular injury. The activity of Factor IXa is measured by monitoring the cleavage of the fluorescent peptide, CH3SO2-D-CHG-Gly-Arg-AFC.AcOH (“CHG” is cyclohexyl-glycine and “AFC” is trifluoro aminomethyl coumarin). Factor IXa cleaves the amide bond between Arg and AFC, thereby releasing the AFC fluorophore. The free AFC can be detected with a fluorescence detector at an excitation wavelength of 405 nm and emission wavelength of 510 nm.

Factor IXa, sequence (P00740 227-461 limits assumed): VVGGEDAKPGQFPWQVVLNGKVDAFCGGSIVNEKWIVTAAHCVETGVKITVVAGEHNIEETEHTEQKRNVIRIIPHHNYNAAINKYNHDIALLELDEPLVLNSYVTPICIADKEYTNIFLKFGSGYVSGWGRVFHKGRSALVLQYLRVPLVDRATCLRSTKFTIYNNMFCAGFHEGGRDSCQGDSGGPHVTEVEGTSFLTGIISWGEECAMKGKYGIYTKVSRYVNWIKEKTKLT
Factor IXa, sequence (P00740 47-191 partner limits assumed): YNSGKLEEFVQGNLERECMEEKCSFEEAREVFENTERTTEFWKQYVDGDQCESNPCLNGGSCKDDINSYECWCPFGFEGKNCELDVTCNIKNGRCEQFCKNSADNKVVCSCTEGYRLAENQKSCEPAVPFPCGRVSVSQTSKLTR

In order of falling IC50:
1. C[C@](O)(C(=O)Nc1ccc2c(N)noc2c1)[C@H]1OCCN(c2ccn(-c3cnnc(OC(CO)CCl)c3)n2)C1=O (stereo partly drawn) [Example 6, (2R)—N-(3-Aminobenzo[d]isoxazol-6-yl)-2-((2R)-4-(1-(6-((1-chloro-3-hydroxypropan-2-yl)oxy)pyridazin-4-yl)-1H-pyrazol-3-yl)-3-oxomorpholin-2-yl)-2-hydroxypropanamide]  975 nM
2. C[C@](O)(C(=O)Nc1ccc2c(N)noc2c1)[C@H]1OCCN(c2ccn(-c3ccc(F)cc3)n2)C1=O [Example 13, (R)—N-(3-aminobenzo[d]isoxazol-6-yl)-2-((R)-4-(1-(4-fluorophenyl)-1H-pyrazol-3-yl)-3-oxomorpholin-2-yl)-2-hydroxypropanamide]  678 nM
3. C[C@](O)(C(=O)Nc1ccc2c(N)noc2c1)[C@H]1OCCN(c2nn(-c3ccc(F)cc3)cc2F)C1=O [Example 17, (R)—N-(3-aminobenzo[d]isoxazol-6-yl)-2-((R)-4-(4-fluoro-1-(4-fluorophenyl)-1H-pyrazol-3-yl)-3-oxomorpholin-2-yl)-2-hydroxypropanamide]  548 nM
4. C[C@](O)(C(=O)Nc1ccc2c(N)noc2c1)[C@H]1OCCN(c2ccn(-c3ccc(C(=O)O)cc3)n2)C1=O [Example 15, 4-(3-((R)-2-((R)-1-((3-aminobenzo[d]isoxazol-6-yl)amino)-2-hydroxy-1-oxopropan-2-yl)-3-oxomorpholino)-1H-pyrazol-1-yl)benzoic acid]  289 nM
5. COc1cc(-n2ccc(N3CCO[C@H]([C@@](C)(O)C(=O)Nc4ccc5c(N)noc5c4)C3=O)n2)ccn1 [Example 1, (2R)—N-(3-Amino-1,2-benzoxazol-6-yl)-2-hydroxy-2-[(2R)-4-[1-(2-methoxy-4-pyridyl)pyrazol-3-yl]-3-oxo-morpholin-2-yl]propanamide]  160 nM
6. C[C@](O)(C(=O)Nc1ccc2c(N)noc2c1)[C@H]1OCCN(c2ccn(-c3ccc(C#N)c(Cl)c3)n2)C1=O [Example 16, (R)—N-(3-aminobenzo[d]isoxazol-6-yl)-2-((R)-4-(1-(3-chloro-4-cyanophenyl)-1H-pyrazol-3-yl)-3-oxomorpholin-2-yl)-2-hydroxypropanamide]  137 nM
7. Cc1cc(-n2ccc(N3CCO[C@H]([C@@](C)(O)C(=O)Nc4ccc5c(N)noc5c4)C3=O)n2)ccn1 [Example 19, (R)—N-(3-aminobenzo[d]isoxazol-6-yl)-2-hydroxy-2-((R)-4-(1-(2-methylpyridin-4-yl)-1H-pyrazol-3-yl)-3-oxomorpholin-2-yl)propanamide]  71.9 nM
8. Cc1cc(N2CCO[C@H]([C@@](C)(O)C(=O)Nc3ccc4c(N)noc4c3)C2=O)nn1-c1cnnc(C#N)c1 [Example 3]  68.4 nM
9. CCOc1cc(-n2ccc(N3CCO[C@H]([C@@](C)(O)C(=O)Nc4ccc5c(N)noc5c4)C3=O)n2)cnn1 [Example 4]  23.2 nM
10. C[C@](O)(C(=O)Nc1ccc2c(N)noc2c1)[C@H]1OCCN(c2ccn(-c3cnnc(C(N)=O)c3)n2)C1=O [Example 5, 5-(3-((R)-2-((R)-1-((3-Aminobenzo[d]isoxazol-6-yl)amino)-2-hydroxy-1-oxopropan-2-yl)-3-oxomorpholino)-1H-pyrazol-1-yl)pyridazine-3-carboxamide]  20.2 nM
11. C[C@](O)(C(=O)Nc1ccc2c(N)noc2c1)[C@H]1OCCN(c2ccn(-c3ccc(=O)n(C(F)F)c3)n2)C1=O [Example 7, (R)—N-(3-Aminobenzo[d]isoxazol-6-yl)-2-((R)-4-(1-(1-(difluoromethyl)-6-oxo-1,6-dihydropyridin-3-yl)-1H-pyrazol-3-yl)-3-oxomorpholin-2-yl)-2-hydroxypropanamide]  18.1 nM
12. C[C@](O)(C(=O)Nc1ccc2c(N)noc2c1)[C@H]1OCCN(c2ccn(-c3ccc(S(C)(=O)=O)cc3)n2)C1=O [Example 14, (R)—N-(3-aminobenzo[d]isoxazol-6-yl)-2-hydroxy-2-((R)-4-(1-(4-(methylsulfonyl)phenyl)-1H-pyrazol-3-yl)-3-oxomorpholin-2-yl)propanamide]  13.2 nM
